Columns and labels:
NAD(P)H oxidase = NAD(P)H oxidase ROS/H2O2 production control test without mitochondria; type: biochemical; details: no mitochondria; NAD(P)H oxidase + NADH; results not shown
[1] = tested on: normoxic, chronic hypoxic and monocrotaline-treated rats; assay: Pulmonary hypertension rat models (chronic hypoxia, monocrotaline); type: in vivo
Protocol: Male Wistar rats (300-400 g) were separated into 3 groups and used 4 weeks later: • the first group (control or normoxic rats—N rats) was housed in ambient room air; • the second group (chronic hypoxic rats—CH rats) was exposed to chronic hypoxia for 3 weeks in a hypobaric chamber (50 kPa), and • the third group (MCT rats) was injected with a single intraperitoneal dose of monocrotaline at a dose of 60 mg/kg. MCT (Sigma, St Quentin Fallavier, France) was dissolved in an equal volume of HCl ([…]) and NaOH ([…]).
In each group, some animals were treated with AOL (Sulfarlem, EG Labo Eurogenerics. Crushed tablets mixed with food, fed ad libitum) and some other animals were untreated. Eaten food was weighed every day to estimate the AOL dose administered. 10 mg/kg/day was thus administered during the 3 weeks of experiment for the second and third groups.
Pulmonary hypertension was assessed by measuring both the mean pulmonary arterial pressure (mPAP) and right ventricle hypertrophy. To measure PAP, N, CH and MCT rats were anesthetized with pentobarbital sodium (Centravet) by intraperitoneal injection (60 mg/kg) and mPAP was measured, in closed-chest rats, through a catheter inserted in the right jugular vein, then through the right atria and the right ventricle into the pulmonary artery, and attached to a Baxter Uniflow gauge pressure transducer.
Right ventricle hypertrophy was estimated by the ratio of right ventricle (RV) to left ventricle plus septum (LV+S) weight (Fulton index).
Pulmonary arteries (PA) remodeling was assessed by measuring the percentage of the PA medial thickness from sections of paraffin-embedded lung. Lung sections were first stained with hematoxylin and eosin (VWR) according to common histological procedure.

[2] = tested on: outer nuclear layer (ONL) of the retina; assay: Progressive light-induced retinal degeneration, retina histology; type: in vivo, rat; details: 6 mg/kg/day, three times a day, 7 days
Protocol: Rats bred under cyclic low-intensity lighting were transferred to cyclic high-intensity lighting for one week and divided into 3 groups (non-treated animals, vehicle-treated animals and AOL-treated animals). Treated animals received injections of vehicle or AOL at a dose of 6 mg/kg/day, three times a day for the 7 days of the transfer (30 minutes before light-ON; at 01.00 pm; at 09.00 pm). After one week, animals were transferred in the dark (D0).
A control group (“untransferred”) was not transferred to cyclic high-intensity lighting but received the same treatment as described above: injections of vehicle or AOL three times a day for 7 days, followed by a transfer in the dark (D0).
Animals were then sacrificed for histological analysis.

[3] = tested on: TH-positive neurons in the substantia nigra of MPTP-treated mice; assay: Sub-chronic MPTP mouse model of Parkinson's disease, TH-positive neuron count; type: in vivo; details: 5 mg/kg ip, 11 consecutive days; p<0.01
Protocol: In this study, the potential neuroprotective effects of AOL were assessed by counting the number of tyrosine hydroxylase (TH)-positive neurons in the substantia nigra (SN) in the sub-chronic 1-methyl-4-phenyl-1,2,3,6-tetrahydropyridine (MPTP) mouse model of Parkinson's disease. Mice were treated with AOL (5 mg/kg; ip) or vehicle for 11 consecutive days. MPTP (20 mg/kg; ip) or saline was administered on treatment days 4-8. All mice were killed on day 12 following final administration of treatment.
For vehicle conditions, the test item was dissolved in 0.5% DMSO/0.95% Tween 20 in saline while AOL was administered intraperitoneally (i.p.) at the dose of 5 mg/kg. […]
Unbiased stereological analysis was used to estimate the number of TH-immunopositive (TH+) neurons (Mercator, Explora Nova, La Rochelle, France). The boundaries of the SN were determined by examining the size and shape of the different TH+ neuronal groups. The volume was calculated by using the formula: V=ΣS td; where ΣS is the sum of surface areas, t is the average section thickness and d is the number of slices between two consecutive sections measured. […] The following formula was used to estimate the number of TH+ neurons: N=V(SN) (ΣQ−/ΣV(dis)); where N is the estimation of cell number, V is the volume of the SN, ΣQ− is the number of cells counted in the dissectors, and ΣV(dis) is the total volume of all the dissectors. […]

SMILES: COc1ccc(-c2cc(=S)ss2)cc1 [AOL, 5-(4-methoxyphenyl)-3H-1,2-dithiole-3-thione]
- ROS/H2O2 production by NAD(P)H oxidase (NAD(P)H oxidase): does not inhibit
- reduction of pulmonary arteries remodeling (printed: pulmonary arteries diameter) ([1]; CH rats, oral 10 mg/kg/day): ~30%
- mean pulmonary arterial pressure (mPAP) ([1]; CH rats, oral 10 mg/kg/day, 3 weeks): even more significantly
- mean pulmonary arterial pressure (mPAP) ([1]; MCT rats, oral 10 mg/kg/day, 3 weeks): decreased
- mean pulmonary arterial pressure (mPAP) ([1]; normoxic (N) rats): no significant effect
- Fulton index (right ventricular hypertrophy) ([1]; oral 10 mg/kg/day): no effect
- ONL thickness ([2]; transferred to cyclic high-intensity lighting): significant increase
- ONL thickness ([2]; untransferred control group): no effect
- increase in number of TH+ cells in the SN compared to vehicle in MPTP-treated mice [3]: 44%

— patent US11318113B2, “Compounds for the treatment of diseases linked to mitochondrial reactive oxygen species (ROS) production” (OP2 DRUGS, priority 2015, dated 2022)
